We go through 2 molecules from patent US7893299B2, “Interleukin-1 and tumor necrosis factor-αmodulators; syntheses of such modulators and methods of using such modulators” (Nereus Pharmaceuticals, Inc., priority 2005, dated 2011).

Read-outs that look alike come from different tables or passages of the source.

Series [1] concerns silicosis (chronic lung inflammation) and cirrhosis (liver inflammation and hepatic fibrosis). The following applies: mice with silicosis and cirrhosis; cited from earlier work.
The next series concerns IL-6 or IFN-γ production. The settings on record: under the same conditions; cited from earlier work.
Series [2] concerns TNF-α and IL-1 production. The following applies: approximately 0.1 to approximately 1.0 microgram/ml for 48 hours; cited from earlier work.
The conditions of series [3]: rat, in vivo; cited from earlier work.
For series [4] the following is noted: mice, cited from earlier work; for toxicity (in words): mice and rats.
The test system of another series is Panc1 cells. The series is described as follows: apoptosis by PI FACS analysis, Panc1. Type of series: cell-based, human. The settings on record: combination treatment with Salinosporamide A, increased from 4%. The source says: (§1) Novel diterpene inhibitors of NFκB derived from acanthoic acid (NPI-1342 (Formula IIB-a1) and NPI-1387; compound 24 under scheme 4 above) show measurable effects in human pancreatic cancer cell lines in vitro. Seven of the nine cell lines were moderately sensitive to apoptosis induced by death receptor ligand Tumor Necrosis Factor (TNF) related apoptosis-inducing ligand (TRAIL). […] Specific silencing of NFkB/p65 expression mimicked these effects. Furthermore, combination treatment of Salinosporamide A and either NPI-1342 or NPI-1387 led to induction of apoptosis as measured by PI FACS analysis. Specifically, levels of DNA fragmentation increased from 4% to 50% in HS766T cells and from 4% to 52% in Panc1 cells. The inhibitory effects of NPI-1342, NPI-1387 on NFκB were evaluated by Electromobility Shift Assays and confirmed by confocal microscopy.
(Flow cytometry measures light scatter and fluorescence of single cells or particles in a stream.)

The next series has as its system HS766T cells. The series is described as follows: apoptosis by PI FACS analysis, HS766T. It is filed as cell-based, human. The settings on record: combination treatment with Salinosporamide A, increased from 4%.
From the text: as §1

For another series, the system named is Panc1 and HS766T. The series is described as follows: TRAIL resistance of human pancreatic cancer cell lines. It is filed as cell-based.
From the text: as §1

For `C=C[C@@]1(C)CC=C2[C@@H](CC[C@@H]3[C@](C)(C(=O)O)CCC[C@@]23C)C1` [Formula (I), acanthoic acid], the “histologic analysis: fibrotic granulomas and cirrotic liver cells” value in series [1] was “substantial reduction of fibrotic granulomas and a remarkable recovery of the cirrotic liver cells”. Further, the “production of IL-6 or IFN-γ” value in the series with IL-6 or IFN-γ production is reported as “not affected”. Also, the “inhibition of the TNF-α and IL-1 production” value in series [2] was “approximately 90%”. The “minimum lethal dose (MLD)” value in series [3] is reported as 1000 mg/kg. Further, the LD in series [4] (orally) was > 300 mg/100 g of body weight. In addition, the “toxicity (in words)” value in series [4] is reported as “minimal toxicity”; in series [4] (listed as Compound 1) it was “very little toxicity”.
For `C=C[C@@]1(C)CCC=C2[C@H]1CC[C@@H]1[C@](C)(C(=O)NC3CCCCC3)CCC[C@@]21C` (stereo in doubt) [Formula (IIB-A1), N-Cyclohexylamide Derivative of TTL], the “levels of DNA fragmentation” value is listed as 52% in the series with Panc1 cells and 50% in the series on HS766T cells. Moreover, the TRAIL resistance entry in the series on Panc1 and HS766T is reported as “reversed TRAIL resistance”.
